Measured values: patent publication US11013704B2, “Compounds supports hematopoietic stem cells and red blood cells” (The Board of Regents of the University of Texas System, priority 2014, dated 2021)
“Also recorded” adds a separate entry of the source.

Columns and labels:
[1] = Stability test in S9 extract; assay type: in vitro ADME, mouse; details: 2 μM, murine S9, Phase I NADPH cofactors, 0-240 minutes
Protocol: (§1) SA (2 μM) was incubated with murine S9 (Lot KWB) and Phase I NADPH Regenerating System cofactors for 0-240 minutes. SA was quantified using a Qtrap 3200 mass spectrometer. n=3. (FIG. 7B) SA is stable in mouse plasma. 1 μl SA 2 mM DMSO stock was incubated with 1 ml ACD mouse plasma or saline making 2 μM SW125991 working solution. Vortext well and incubate in 37° C. water bath. At time point 0, 10, 30, 60, 120, 240, 1440 min, SA was quantified using a Qtrap 3200 mass spectrometer. n=3.
SA (2 mM in H2O stock, final concentration in mixture is 2 μM) was incubated with Murine S9 (Lot KWB) fraction and Phase I (NADPH Regenerating System) cofactors for 0-240 minutes. Reactions were quenched with 1 mL (1:1) of methanol containing 0.2% formic acid, and 100 ng/ml IS (IS final conc.=10 ng/ml). Samples were vortexed for 15 seconds, incubated at RT for 10 minutes and spun for 5 minutes at 2400 rpm. Supernatant (1 mL) was then transferred to an eppendorf tube and spun in a table top, chilled centrifuge for 5 minutes at 13.2K rpm. Supernatant (800 μl) was transferred to an HPLC vial (w/out insert). Analyzed by Qtrap 3200 mass spectrometer.

Balb/c mice [2] = assay: Toxicity in mice, daily injections for 28 days; assay type: in vivo, mouse; details: for toxicity: 0.5 and 1.5 mg daily for four weeks (33- and 100-times the effective amount)
Protocol: In this experiment, 8-week-old Balb/c mice were given daily injections of SA at doses of 0, 0.5, and 1.5 mg per mouse for 28 days. The body weight and activities of mice were monitored daily.

[3] = test system: Bone marrow CD45.1 Lin-Sca-1+Kit+Flk2-CD34- cells; assay: Ex vivo expansion of mouse bone marrow HSCs, repopulation after transplantation; assay type: cell-based; details: cultured 8 days, determined by bone marrow transplantation
Protocol: (§2) Mouse BM Lin-Sca-1+Kit+CD34-Flk2-cells were cultured in serum-free Stemspan medium with 10 ng/ml SCF, 20 ng/ml TPO, and indicated concentrations of SA. Cell numbers were counted after 6 days. FIG. 2B The effects of SA on the ex vivo expansion of mouse CD45.1 Percent repopulation of C57BL/6 bone marrow HSCs at 0, 10 nM, 100 nM, and 1 μM for 8 days, measured at 3 weeks, 7 weeks, and 16 weeks post-transplantation. The repopulation of donor mouse CD45.1 HSCs was determined by transplantation into lethally irradiated (1000 rad) CD45.2 C57BL/6 mice. Ten thousand CD45.2 total bone marrow cells were co-transplanted as competitors. n=5. […] The repopulation of human hematopoietic stem cells was determined by transplantation into sublethally irradiated (250 rad) NOD/SCID IL2R gamma^−/− (NSG) mice. n=7.
Bone marrow CD45.1 Lin^−Sca-1^+Kit^+Flk2^−CD34^− cells were isolated from 8-12 week old CD45.1 C57BL/6 mice and were plated into wells of a U-bottom 96-well plate (3799; Corning). StemSpan serum-free medium (StemCell Technologies) supplemented with 10 μg/mL heparin (Sigma), 10 ng/mL mouse SCF (R&D Systems), 20 ng/mL mouse TPO (R&D Systems), and 10 ng/mL human FGF-1 (Invitrogen), and indicated concentration of suberoylarginine was used. Cells were cultured at 37° C. in 5% CO2 and the normal level of O2 for 8 days. […]

Stability test in plasma = assay type: in vitro ADME; details: 2 μM, mouse plasma, 37° C., 0-1440 min
Protocol: as §1
1 μl of SA (2 mM DMSO stock) was incubated with 1 ml ACD mouse plasma or saline control to make 2 μM SW125991 working solution. Vortext well and incubate in 37° C. water bath. At time point 0, 10, 30, 60, 120, 240, 1440 min, 100 μl sample was crashed by 200 μl MeOH with IS benzylbenzamide at 15 ng/ml. Centrifuge twice at 13200 rpm for 5 min, and supernatant was injected into LCMS for analysis.

[4] = test system: human cord blood CD133+ cells; assay: Ex vivo expansion of human cord blood HSCs, repopulation in NSG mice; assay type: cell-based; details: cord blood CD133+ cells cultured 11 days, 1 μM, 8 weeks post-transplantation
Protocol: as §2
Cryopreserved human cord blood CD133^+ cells were purchased from AllCells. All of cells were from pooled donors. Purities of CD133^+ cells as analyzed by flow cytometry were higher than 90%. After thawing, the cell viability tested by trypan blue exclusion was higher than 72%. […] Eight weeks after transplantation, bone marrow nucleated cells from transplanted animals were analyzed by flow cytometry for the presence of human cells. Total human hematopoietic cells were determined as CD45/71^+, and human myeloid cells as myeloid CD45/71^+CD15/66b^+.

Balb/c mice [5] = assay: Mouse model of bone marrow failure after chemo- and radio-treatment; assay type: in vivo
Protocol: (§3) Balb/c mice were first treated with 100 mg/kg acetylphenylhydrazine and, after 24 hours, were irradiated with 2 Gy. Two days post radiation treatment, the mice were treated with 62.5 mg/kg cyclophosphamide (CY). This treatment is known to induce sublethal damage to HSCs and RBCs. Two days after the CY treatment, the mice were given daily intraperitoneal injections of SA for 4 to 14 days; a range of SA concentrations was evaluated. Blood counts were measured at days 0, 4, and 8. Additionally, bone marrow Lin^−Sca-1^+Kit^+CD34^−Flk2^− (LSKFC) cells that are enriched for HSCs and hematopoietic lineages were quantified at day 14.
as §3, with “The inventors tested the effect of SA on HSCs and RBCs in a mouse bone marrow failure model after chemo- and radio-therapy. In this model, Balb/c mice” for “Balb/c mice”, “for HSCs (Christensen and Weissman, 2001) and hematopoietic” for “for HSCs and hematopoietic”

[6] = test system: Mouse bone marrow Lin-Sca-1+Kit+CD34-Flk2-cells; assay: Proliferation of mouse HSCs; assay type: cell-based; details: serum-free Stemspan, 10 ng/ml SCF, 20 ng/ml TPO, cell numbers after 6 days
Protocol: as §2
Mouse bone marrow Lin-Sca-1+Kit+CD34-Flk2-cells were cultured in serum-free Stemspan medium with 10 ng/ml SCF, 20 ng/ml TPO, and indicated concentrations of SA. Cell numbers were counted after 6 days.

[7] = 0.5 and 1.5 mg per mouse daily for 28 days

N=C(N)NCCC[C@H](NC(=O)CCCCCCC(=O)O)C(=O)O [SA, suberoyl arginine]
metabolic stability in S9 liver fractions [1]: metabolically stable | toxicity (Balb/c mice [2]): did not observe any detectable SA toxicity | toxicity (Balb/c mice [2]; listed as subreoylarginine): no detectable toxicity | body weight (Balb/c mice [2]; [7]): did not significantly alter | changes in behavior, activity, hematology, serum chemistry, or urinalysis parameters (Balb/c mice [2]; [7]): did not observe any changes | histological damage to tissues/organs (Balb/c mice [2]; [7]): no damage was observed | body weight (Balb/c mice [2]; 0.5 and 1.5 mg per mouse daily for 28 days, listed as suberoylarginine): No significant change | ex vivo expansion of mouse HSCs [3]: supports the ex vivo expansion | stability in plasma (Stability test in plasma): metabolically stable | ex vivo expansion of human HSCs [4]: supports the ex vivo expansion | increase of phenotypic bone marrow HSCs (Balb/c mice [5]; 15 μg of SA per mouse (~0.7 mg/kg) per day for 14 days): ~40% | increase of hematocrit relative to animals not treated (Balb/c mice [5]; day 8): 25-30% | increase of hemoglobin relative to animals not treated (Balb/c mice [5]; day 8): 25-30% | increase of level of RBCs relative to animals not treated (Balb/c mice [5]; day 8): 25-30% | stimulation of hematopoietic recovery by route (Balb/c mice [5]; iv or intraperitoneal (ip) administration): works efficiently | effect on RBC recovery compared with EPO (Balb/c mice [5]; same mouse model, SA 15 μg, EPO 120 U/kg): comparable to that of EPO | proliferation of mouse HSCs [6]: promoted the proliferation; also recorded: promotes proliferation
